Results from patent publication US11730720B2, “ALK5 inhibitors” (THERAVANCE BIOPHARMA R&D IP, LLC, priority 2018, dated 2023).

Experiments:
[1] = test system: TGF-β-stimulated SMAD3 phosphorylation in BEAS-2B cells; assay: Cellular ALK5 potency assay, inhibition of TGF-β stimulated pSMAD3 formation in BEAS-2B cells; format: cell-based; settings: Homo sapiens, inhibition of TGF-β (10 ng/mL) stimulated pSMAD3 formation, 1 hour compound incubation, read-out: BEAS2B pIC50 (converted)
In short: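 Phospho-SMAD3 was quantified by AlphaLISA in lysates of human lung epithelial BEAS-2B cells. Compound was added 1 h (37 °C, HEPES/BSA-supplemented HBSS) before a 30 min challenge with 10 ng/mL TGF-β. Values are pIC50 relative to stimulated cells without compound.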

[2] = target: T1, recombinant human ALK5 (TGF-βR1) protein (Homo sapiens, UniProt P36897); assay: Biochemical ALK5 (TGF-βR1) assay to measure pKi (LANCE Ultra ULight kinase assay); settings: apparent pKi, converted from pIC50 using the Cheng-Prusoff equation
T1 construct: purchased Life Technologies PR9075A
T1 sequence (P36897 34-503): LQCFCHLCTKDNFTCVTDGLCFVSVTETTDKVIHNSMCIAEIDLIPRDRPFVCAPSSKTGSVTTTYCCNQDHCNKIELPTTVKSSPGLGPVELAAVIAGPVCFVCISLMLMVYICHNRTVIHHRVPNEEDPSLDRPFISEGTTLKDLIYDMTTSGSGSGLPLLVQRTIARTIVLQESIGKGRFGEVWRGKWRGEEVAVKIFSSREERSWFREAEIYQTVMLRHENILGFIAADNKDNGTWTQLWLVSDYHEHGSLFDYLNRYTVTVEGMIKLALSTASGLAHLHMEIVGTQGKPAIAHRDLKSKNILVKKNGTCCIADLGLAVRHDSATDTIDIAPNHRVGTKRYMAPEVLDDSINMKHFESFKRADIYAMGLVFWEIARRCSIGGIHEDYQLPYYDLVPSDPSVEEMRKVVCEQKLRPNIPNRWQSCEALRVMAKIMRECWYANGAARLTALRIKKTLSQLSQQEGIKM
In short: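 TR-FRET kinase format: compound dose range 10 μM–25 pM equilibrated 60 min with human ALK5 and ULight-labelled topoisomerase 2α peptide in HEPES/MgCl2 buffer pH 7.5 with DTT. Reaction started with ATP (125 μM stock, 5× final), 60 min at 37° C, stopped with EDTA/Eu-anti-phospho antibody; pKi derived from pIC50 via Cheng-Prusoff.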

Row | SMILES | IC50 [1] [nM] | Ki [2] [nM]
1 | Fc1cc(F)c(-c2n[nH]cc2-c2ccc3ncc(-c4cc5n(n4)CCNC5)cc3n2)cc1Cl [Compound 6-56, 2-[3-(5-chloro-2,4-difluoro-phenyl)-1H-pyrazol-4-yl]-7-(4,5,6,7-tetrahydropyrazolo[1,5-a]pyrazin-2-yl)-1,5-naphthyridine] | 25.1 to 158 | 0.0398 to 0.316
2 | Fc1cc(F)c(-c2n[nH]cc2-c2ccc3ncc(-c4nnn5c4CNCC5)cc3n2)cc1Cl [Compound 6-57, 2-[3-(5-chloro-2,4-difluoro-phenyl)-1H-pyrazol-4-yl]-7-(4,5,6,7-tetrahydrotriazolo[1,5-a]pyrazin-3-yl)-1,5-naphthyridine] | 25.1 to 158 | 0.398 to 3.16
3 | Fc1cc(F)c(-c2n[nH]cc2-c2ccc3ncc(-c4nnn5c4NCC5)cc3n2)cc1Cl [Compound 6-58, 2-[3-(5-chloro-2,4-difluoro-phenyl)-1H-pyrazol-4-yl]-7-(5,6-dihydro-4H-imidazo[1,2-c]triazol-3-yl)-1,5-naphthyridine] | 25.1 to 158 | 0.0398 to 0.316
4 | Fc1cc(F)c(-c2n[nH]cc2-c2ccc3ncc(-c4[nH]nc5c4CCN5)cc3n2)cc1Cl [Compound 6-59, 2-[3-(5-chloro-2,4-difluoro-phenyl)-1H-pyrazol-4-yl]-7-(2,4,5,6-tetrahydropyrrolo[2,3-c]pyrazol-3-yl)-1,5-naphthyridine] | 25.1 to 158 | 0.0398 to 0.316
5 | Fc1cc(F)c(-c2n[nH]cc2-c2ccc3ncc(-c4cnc5n4CCCN5)cc3n2)cc1Cl [Compound 6-60, 2-[3-(5-chloro-2,4-difluoro-phenyl)-1H-pyrazol-4-yl]-7-(5,6,7,8-tetrahydroimidazo[1,2-a]pyrimidin-3-yl)-1,5-naphthyridine] | 25.1 to 158 | 0.398 to 3.16
6 | COC(=O)N1CCc2nnc(-c3cnc4ccc(-c5c[nH]nc5-c5cc(Cl)c(F)cc5F)nc4c3)cc2C1 [Compound 6-61, methyl 3-[6-[3-(5-chloro-2,4-difluoro-phenyl)-1H-pyrazol-4-yl]-1,5-naphthyridin-3-yl]-7,8-dihydro-5H-pyrido[4,3-c]pyridazine-6-carboxylate] | 25.1 to 158 | 0.0398 to 0.316
7 | Fc1cc(F)c(-c2n[nH]cc2-c2ccc3ncc(-c4cn(Cc5c[nH]cn5)nn4)cc3n2)cc1Cl [Compound 6-62, 7-(1-((1H-imidazol-4-yl)methyl)-1H-1,2,3-triazol-4-yl)-2-(3-(5-chloro-2,4-difluorophenyl)-1H-pyrazol-4-yl)-1,5-naphthyridine] | 25.1 to 158 | 0.0398 to 0.316
8 | Fc1cc(F)c(-c2n[nH]cc2-c2ccc3ncc(-c4cn(Cc5cnc6c(c5)CNCC6)nn4)cc3n2)cc1Cl [Compound 6-63, 2-[3-(5-chloro-2,4-difluoro-phenyl)-1H-pyrazol-4-yl]-7-[1-(5,6,7,8-tetrahydro-1,6-naphthyridin-3-ylmethyl)triazol-4-yl]-1,5-naphthyridine] | 25.1 to 158 | 0.0398 to 0.316
9 | Fc1cc(F)c(-c2n[nH]cc2-c2ccc3ncc(-c4nnc5n4CCN5)cc3n2)cc1Cl [Compound 6-64, 2-[3-(5-chloro-2,4-difluoro-phenyl)-1H-pyrazol-4-yl]-7-(6,7-dihydro-5H-imidazo[2,1-c][1,2,4]triazol-3-yl)-1,5-naphthyridine] | 200 to 1260 | 0.398 to 3.16
10 | Fc1cc(F)c(-c2n[nH]cc2-c2ccc3ncc(-c4ncc5n4CCN5)cc3n2)cc1Cl [Compound 6-65, 2-[3-(5-chloro-2,4-difluoro-phenyl)-1H-pyrazol-4-yl]-7-(2,3-dihydro-1H-imidazo[1,2-c]imidazol-5-yl)-1,5-naphthyridine] | 200 to 1260 | 3.98 to 31.6
11 | Fc1cc(F)c(-c2n[nH]cc2-c2ccc3ncc(NCC4CCCNC4)cc3n2)cc1Cl (stereo not drawn) [Compound 6-66, 6-[3-(5-chloro-2,4-difluoro-phenyl)-1H-pyrazol-4-yl]-N-(3-piperidylmethyl)-1,5-naphthyridin-3-amine] | 200 to 1260 | 0.398 to 3.16
12 | CNCCn1cc(-c2cnc3ccc(-c4c[nH]nc4-c4cc(Cl)c(F)cc4F)nc3c2)nn1 [Compound 6-67, 2-[4-[6-[3-(5-chloro-2,4-difluoro-phenyl)-1H-pyrazol-4-yl]-1,5-naphthyridin-3-yl]triazol-1-yl]-N-methyl-ethanamine] | 25.1 to 158 | ≤ 0.0316
13 | O=C(O)[C@H]1CN(c2cnc3ccc(-c4c[nH]nc4-c4cc(Cl)c(F)cc4F)nc3c2)CCN1 [Compound 6-68, (2R)-4-[6-[3-(5-chloro-2,4-difluoro-phenyl)-1H-pyrazol-4-yl]-1,5-naphthyridin-3-yl]piperazine-2-carboxylic acid] | 200 to 1260 | 0.398 to 3.16
14 | Fc1cc(F)c(-c2n[nH]cc2-c2ccc3ncccc3n2)cc1Cl [Compound 6-71, 2-[3-(5-chloro-2,4-difluoro-phenyl)-1H-pyrazol-4-yl]-1,5-naphthyridine] | 25.1 to 158 | 0.398 to 3.16
15 | CC(CO)N1CCN(CCNc2cnc3ccc(-c4c[nH]nc4-c4cc(Cl)c(F)cc4F)nc3c2)CC1 (stereo not drawn) [Compound 6-72, 2-[4-[2-[[6-[3-(5-chloro-2,4-difluoro-phenyl)-1H-pyrazol-4-yl]-1,5-naphthyridin-3-yl]amino]ethyl]piperazin-1-yl]propan-1-ol] | 25.1 to 158 | 0.0398 to 0.316
16 | C[C@@H]1CN(CCNc2cnc3ccc(-c4c[nH]nc4-c4cc(Cl)c(F)cc4F)nc3c2)C[C@H](C)N1 [Compound 6-74, 6-[3-(5-chloro-2,4-difluoro-phenyl)-1H-pyrazol-4-yl]-N-[2-[rac-(3R,5S)-3,5-dimethylpiperazin-1-yl]ethyl]-1,5-naphthyridin-3-amine] | 25.1 to 158 | 0.0398 to 0.316
17 | COC(=O)CC1CN(CCNc2cnc3ccc(-c4c[nH]nc4-c4cc(Cl)c(F)cc4F)nc3c2)CCN1 (stereo not drawn) [Compound 6-75, methyl 2-[4-[2-[[6-[3-(5-chloro-2,4-difluoro-phenyl)-1H-pyrazol-4-yl]-1,5-naphthyridin-3-yl]amino]ethyl]piperazin-2-yl]acetate] | 25.1 to 158 | 0.398 to 3.16
18 | Fc1cc(F)c(-c2[nH]cnc2-c2ccc3ncc(NCCN4CCNCC4)cc3n2)cc1Cl [Compound 7-1, 6-(5-(5-chloro-2,4-difluorophenyl)-1H-imidazol-4-yl)-N-(2-(piperazin-1-yl)ethyl)-1,5-naphthyridin-3-amine] | 25.1 to 158 | 0.0398 to 0.316
19 | CC(C)N1CCN(CCNc2cnc3ccc(-c4nc[nH]c4-c4cc(Cl)c(F)cc4F)nc3c2)CC1 [Compound 7-2, 6-[5-(5-chloro-2,4-difluoro-phenyl)-1H-imidazol-4-yl]-N-[2-(4-isopropylpiperazin-1-yl)ethyl]-1,5-naphthyridin-3-amine] | 25.1 to 158 | 0.0398 to 0.316
20 | O=C(O)[C@H]1CN(c2cnc3ccc(-c4nc[nH]c4-c4cc(Cl)c(F)cc4F)nc3c2)CCN1 [Compound 7-3, (R)-4-(6-(5-(5-chloro-2,4-difluorophenyl)-1H-imidazol-4-yl)-1,5-naphthyridin-3-yl)piperazine-2-carboxylic acid] | 25.1 to 158 | 0.398 to 3.16
21 | CNCCn1cc(-c2cnc3ccc(-c4nc[nH]c4-c4cc(Cl)c(F)cc4F)nc3c2)cn1 [Compound 7-4, 2-(4-(6-(5-(5-chloro-2,4-difluorophenyl)-1H-imidazol-4-yl)-1,5-naphthyridin-3-yl)-1H-pyrazol-1-yl)-N-methylethan-1-amine] | 25.1 to 158 | 0.0398 to 0.316
